{"source": "patent US20230158071A1", "about": "“TUMOR COMBINED IMMUNOTHERAPY” (CRAGE medical Co., Limited, priority 2018, published 2023)", "key": {"[1]": {"tested_on": "cytokines Granzyme B, IFN-γ, and IL-2", "assay": "ELISA of cytokines in supernatant of co-cultured E0771-EGFRvIII cells and CAR-T cells", "type": "cell-based, mouse", "conditions": "E0771-EGFRvIII co-culture", "protocol": "Olaparib pretreatment group: different concentrations of olaparib (1 μM, 5 μM) are added to the medium for culturing E0771-EGFRVIII or 4T1-EGFRvIII tumor cells respectively, culturing at 37° C. for 24 h, and then the cells are treated with trypsin and resuspended in fresh medium. The untreated mouse T cells and 806-mCD28z-CAR T cells in Example 1 are respectively taken to incubate with E0771-EGFRvIII or 4T1-EGFRVIII cells pretreated with different concentrations of olaparib at a ratio of 1:3, 1:1, and 3:1; 16 hours later, the secretion of LDH in the supernatant is detected by Cytox 96 Non-Radioactive Cytotoxicity Assay, then calculating the killing toxicity of 806-mCD28z CAR T cells to tumor cells pretreated with different concentrations of olaparib. For specific detection steps and calculation methods, see the instructions of Promaga. Cytox 96 Non-Radioactive Cytotoxicity Assay (Promaga, REF: G1782); at the same time, the secretions of cytokines Granzyme B, IFN-γ, and IL-2 in the supernatant are detected by ELISA kit (Lianke Biotech Co. Ltd. CAT: 18^.22), for specific experimental procedures, referring to instructions of MouseGranzyme B, IFN-γ, IL-2 ELISA kit from Lianke Biotech Co, Ltd.\nOlaparib combined treatment group: different concentrations of olaparib (1 μM, 5 μM) are added to the medium for culturing E0771-EGFRVIII or 4T1-EGFRvIII tumor cells respectively, culturing at 37° C. for 24 h, and then the cells are treated with trypsin and resuspended in fresh medium. The untreated mouse T cells and 806-mCD28z-CAR T cells in Example 1 are respectively taken to incubate with E0771-EGFRvIII or 4T1-EGFRvIII cells treated with different concentrations of olaparib at a ratio of 1:3, 1:1, and 3:1; after corresponding concentrations of olaparib (1 μM, 5 μM) are added to treat the cells continuously for 16 hours, the secretion of LDH in the supernatant is detected by Cytox 96 Non-Radioactive Cytotoxicity Assay, then calculating the killing toxicity of 806-mCD28z CAR T cells to tumor cells pretreated with different concentrations of olaparib. […]"}, "[2]": {"tested_on": "4T1-EGFRvIII orthotopic breast cancer xenografts", "assay": "Mouse 4T1-EGFRvIII orthotopic breast cancer xenografts, olaparib and CAR-T", "type": "in vivo, BALB/c mice", "conditions": "olaparib 50 mg/kg i.p. with CAR-T cells", "protocol": "(1) Establishment of mouse orthotopic breast cancer model and respective treatment in groups:\n4T1-EGFRvIII cells in the logarithmic growth phase and growing well are collected, inoculating 5×10^5 target cells at right side position of the third pair of accessory breasts of BABL/C mice (mice with normal immune system), and the inoculating day is recorded as the first day (i.e., Day 1).\nOn the 10th day after tumor inoculation (i.e. Day 10), mouse T cells are taken and 806-mCD28z-CAR-T cell line is constructed as described in step 1 of this example.\nOn the 14th day after tumor inoculation (i.e., Day 14), the volume of the tumor reaches about 150 mm^3, and the mice are divided in groups: […]\n(2) Detection of tumor volume. The tumor volume changes of mice are observed and measured continuously, and recorded three times a week. […]\n(4) Detection of CAR-T copy number in tumor tissues. Tumor tissues of each group of mice are ground to extract DNA, and the sequence of retroviral vector fragment is detected by Taqman probe method to determine the DNA copy number of 806-mCD28z-CAR. […]\n(6) Detection of MDSC cells in tumor tissue. The tumor tissues of mice in each group are ground, and after enzyme digestion, the changes in the proportion of MDSC cells are analyzed by flow cytometry. […]"}, "[3]": {"conditions": "olaparib pretreatment and combined treatment groups vs CAR-T single treatment group"}}}
{"smiles": "O=C(c1cc(Cc2n[nH]c(=O)c3ccccc23)ccc1F)N1CCN(C(=O)C2CC2)CC1", "note": "[olaparib]", "values": [{"measurement": "level of Granzyme B in the supernatant", "setting": "[1]; [3]", "value": "do not increase significantly"}, {"measurement": "level of IL-2 in the supernatant", "setting": "[1]; [3]", "value": "do not increase significantly"}, {"measurement": "level of IFN-γ in the supernatant", "setting": "[1]; olaparib pretreatment group and olaparib combined treatment group vs CAR-T single treatment group", "value": "significantly increased"}, {"measurement": "toxicity of combining olaparib with CAR-T cell therapy (from body weights)", "setting": "[2]", "value": "do not cause significant toxicity"}]}
